# System: human MDR1 P-gp
# Test: Assay D: efflux in MDCK cells transfected with the human MDR1 gene
# Type: in vitro ADME, canine
# Conditions: dog; MDCK-MDR1 monolayers, pH 7.4, 37° C.; read-out: MDCK efflux ratio (BA/AB)
# Description: The MDCK assay provides information on the potential of a compound to pass the blood brain barrier. Permeability measurements across polarized, confluent MDCK-MDR1 cell monolayers grown on permeable filter supports are used as an in vitro absorption model: apparent permeability coefficients (PE) of the compounds across the MDCK-MDR1 cell monolayers are measured (pH 7.4, 37° C.) in apical-to-basal (AB) and basal-to-apical (BA) transport direction. The AB permeability (PEAB) represents drug absorption from the blood into the brain and the BA permeability (PEBA) drug efflux from the brain back into the blood via both, passive permeability as well as active transport mechanisms mediated by efflux and uptake transporters that are expressed on the MDCK-MDR1 cells, predominantly by the overexpressed human MDR1 P-gp. Identical or similar permeabilities in both transport directions indicate passive permeation, vectorial permeability points to additional active transport mechanisms. Higher PEBA than PEAB (PEBA/PEAB>5) indicates the involvement of active efflux mediated by MDR1 P-gp, which might compromises the goal to achieve sufficient brain exposure. Therefore this assay provides valuable support for selection of compounds applicable for further in vivo testing. High permeability not limited by efflux at the blood brain barrier is a favourable characteristic for compounds that are to be used for drugs acting primarily in the CNS
# D. Assessment of Efflux in Madin-Darby Canine Kidney (MDCK) Cells Transfected with the Human MDR1 Gene
# Apparent permeability coefficients (PE) of the compounds across the MDCK-MDR1 cell monolayers are measured (pH 7.4, 37° C.) in apical-to-basal (AB) and basal-to-apical (BA) transport direction. AB permeability (PEAB) represents drug absorption from the blood into the brain and BA permeability (PEBA) drug efflux from the brain back into the blood via both passive permeability as well as active transport mechanisms mediated by efflux and uptake transporters that are expressed on the MDCK-MDR1 cells, predominantly by the overexpressed human MDR1 P-gp. The compounds are assigned to permeability/absorption classes by comparison of the AB permeabilities with the AB permeabilities of reference compounds with known in vitro permeability and oral absorption in the human. Identical or similar permeabilities in both transport directions indicate passive permeation, vectorial permeability points to additional active transport mechanisms. Higher PEBA than PEAB indicates the involvement of active efflux mediated by MDR1 P-gp. Active transport is concentration-dependently saturable.
# MDCK-MDR1 cells (1-2×10e5 cells/1 cm2 area) are seeded on filter inserts (Costar transwell polycarbonate or PET filters, 0.4 μm pore size) and cultured (DMEM) for 7 days. Subsequently, the MDR1 expression is boosted by culturing the cells with 5 mM sodium butyrate in full medium for 2 days. Compounds are dissolved in appropriate solvent (like DMSO, 1-20 mM stock solutions). Stock solutions are diluted with HTP-4 buffer (128.13 mM NaCl, 5.36 mM KCl, 1 mM MgSO4, 1.8 mM CaCl2, 4.17 mM NaHCO3, 1.19 mM Na2HPO4×7H2O, 0.41 mM NaH2PO4×H2O, 15 mM HEPES, 20 mM glucose, 0.25% BSA, pH 7.4) to prepare the transport solutions (0.1-300 μM compound, final DMSO<=0.5%). The transport solution (TL) is applied to the apical or basolateral donor side for measuring A-B or B-A permeability (3 filter replicates), respectively. The receiver side contains the same buffer as the donor side. Samples are collected at the start and end of experiment from the donor and at various time intervals for up to 2 hours also from the receiver side for concentration measurement by HPLC-MS/MS or scintillation counting. Sampled receiver volumes are replaced with fresh receiver solution.
row,SMILES,efflux ratio
1,CCN(C(=O)c1ccccc1-n1nccn1)[C@@H](C)CNc1ncc(C(F)(F)F)cn1 [Example 1],< 3
2,CCN(C(=O)c1nc(C)ccc1-n1nccn1)[C@@H](C)CNc1ncc(C(F)(F)F)cn1 [Example 9],< 3
3,CCN(C(=O)c1cnc(C)nc1-c1ccccc1)[C@@H](C)CNc1ncc(C(F)(F)F)cn1 [Example 17],< 3
4,CCN(C(=O)c1cccc(F)c1-n1nccn1)[C@@H](C)CNc1ncc(C(F)(F)F)cn1 [Example 18],< 3

# — patent US9884854B2, “N-[(pyrimidinylamino)propanyl]-and N[(pyrazinylamino)proppanyl]arylcarboxamides” (Boehringer Ingelheim International GmbH, priority 2016, dated 2018)
